Results as given in publication PMC5684506 (BioImpacts : BI, 2017).
pKi: −log10 of the molar value.

Target: T1, bovine liver catalase (BLC) (Bos taurus, UniProt P00432)
T1 sequence (P00432 2-527): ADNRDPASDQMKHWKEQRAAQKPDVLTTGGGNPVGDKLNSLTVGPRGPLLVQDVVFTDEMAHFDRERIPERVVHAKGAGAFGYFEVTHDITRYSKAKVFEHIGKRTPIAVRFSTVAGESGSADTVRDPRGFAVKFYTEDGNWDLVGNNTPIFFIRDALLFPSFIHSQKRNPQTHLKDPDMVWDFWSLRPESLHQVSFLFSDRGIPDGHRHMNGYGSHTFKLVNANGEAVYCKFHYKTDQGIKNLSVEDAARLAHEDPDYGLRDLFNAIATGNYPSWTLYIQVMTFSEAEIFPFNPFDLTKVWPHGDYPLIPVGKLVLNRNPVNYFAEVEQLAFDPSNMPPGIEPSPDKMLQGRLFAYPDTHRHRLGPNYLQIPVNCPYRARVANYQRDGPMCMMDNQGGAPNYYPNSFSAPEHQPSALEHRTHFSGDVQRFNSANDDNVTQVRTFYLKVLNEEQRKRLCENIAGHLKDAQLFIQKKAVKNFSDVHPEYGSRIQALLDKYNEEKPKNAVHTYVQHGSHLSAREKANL
Experiment: UV assay of H2O2 decomposition at […] nm with Lineweaver-Burk analysis
Assay type: biochemical

In the case of `O=c1c(O)c(-c2ccc(O)c(O)c2)oc2cc(O)cc(O)c12` [QUE, 3,5,7,3ʹ,4ʹ-pentahydroxyflavone], the pKi was 4.34.
